Data from a compilation of properties of binary mixtures (doi:10.1021/acs.jced.9b01103).

Experiment: xn = mol fraction of the nth substance listed
Settings: 96.7 kPa

CC(=O)[O-].CCCC[n+]1ccn(C)c1 + CS(C)=O
viscosity [mPa·s]
Settings	303.15 K	308.15 K	313.15 K	318.15 K	323.15 K	328.15 K	333.15 K	338.15 K	343.15 K	348.15 K
x1 = 0.21	6.44	–	4.98	–	3.81	3.39	3.08	2.77	–	2.3
x1 = 0.285	9.15	7.85	6.63	5.91	–	–	–	3.69	3.3	3.01
x1 = 0.369	13.34	11.31	9.67	8.25	7.12	6.3	5.48	4.89	–	3.97
x1 = 0.478	22.7	18	14.83	12.54	10.64	9.15	7.97	6.92	6.06	5.44
x1 = 0.606	51.5	39.2	30.3	–	19.2	–	12.9	10.5	8.81	7.34
x1 = 0.789	98.8	74.1	56.1	42.7	33.2	26.7	21.7	–	15.07	12.69
x1 = 0.884	131.1	96.5	75.2	–	47.5	39	32.8	28.1	–	–
x1 = 1	253	180.6	133.1	102	79.4	62.1	50.2	40.7	–	28.4

CS(C)=O + CC(=O)[O-].CCCC[n+]1ccn(C)c1
x2 = 0
Settings	viscosity [mPa·s]
303.15 K	1.8
308.15 K	1.665
313.15 K	1.529
318.15 K	1.407
323.15 K	1.304
328.15 K	1.211
333.15 K	1.127
343.15 K	0.989
348.15 K	0.931
